ChEMBL document CHEMBL3885861, “Open TG-GATES”

Organism: Rattus norvegicus
Test: Open TG-GATES - Regimen: Single
Format: toxicity, organism-based, Sprague-Dawley
Parameters: regimen Single, gender Male, age 6 weeks
Settings: in vivo, po, 300 mg/kg, route gavage, dose level Middle; for APTT / Bas / Eos / Fbg / Hb / Ht / Lym / MCH / MCHC / MCV / Mono / Neu / PT / Plat / RBC / Ret / WBC: tissue Blood; for KIDNEY_L / KIDNEY_R / KIDNEY_TOTAL: tissue Kidney; for LIVER: tissue Liver; for A/G / ALP / ALT / AST / BUN / CRE / Ca / Cl / DBIL / GLC / IP / K / LDH / Na / PL / RALB / TBIL / TC / TG / TP / gamma-GTP: tissue Plasma

SMILES: COc1ccc(Cl)cc1C(=O)NCCc1ccc(S(=O)(=O)NC(=O)NC2CCCCC2)cc1 [GLYBURIDE]
- TERMINAL_BW (9 h): 213.5 g
- APTT (9 h): 19.3 s
- Bas (9 h): 0%
- Eos (9 h): 1%
- Fbg (9 h): 234.8 mg/dL
- Hb (9 h): 13.4 g/dL
- Ht (9 h): 41%
- Lym (9 h): 67.8%
- MCH (9 h): 20.7 pg
- MCHC (9 h): 32.8%
- MCV (9 h): 63.2 fL
- Mono (9 h): 3%
- Neu (9 h): 27.4%
- PT (9 h): 12.6 s
- Plat (9 h): 119.4 x10_4/uL
- RBC (9 h): 648.6 x10_4/ul
- Ret (9 h): 7.9%
- WBC (9 h): 119.6 x10_2/uL
- KIDNEY_L (9 h): 0.9 g
- KIDNEY_R (9 h): 1 g
- KIDNEY_TOTAL (9 h): 1.9 g
- LIVER (9 h): 9.4 g
- A/G (9 h): 1.5
- ALP (9 h): 926.6 IU/L
- ALT (9 h): 35.8 IU/L
- AST (9 h): 65.2 IU/L
- BUN (9 h): 12.2 mg/dL
- CRE (9 h): 0.3 mg/dL
- Ca (9 h): 10.6 mg/dL
- Cl (9 h): 102.8 meq/L
- DBIL (9 h): 0.086 mg/dL
- GLC (9 h): 148.4 mg/dL
- IP (9 h): 10.2 mg/dL
- K (9 h): 3.6 meq/L
- LDH (9 h): 133.6 IU/L
- Na (9 h): 141.6 meq/L
- PL (9 h): 149.2 mg/dL
- RALB (9 h): 3.5 g/dL
- TBIL (9 h): 0.1 mg/dL
- TC (9 h): 76.2 mg/dL
- TG (9 h): 58.6 mg/dL
- TP (9 h): 5.8 g/dL
- gamma-GTP (9 h): 1.8 IU/L
- TERMINAL_BW (24 h): 225 g
- APTT (24 h): 18.1 s
- Bas (24 h): 0.2%
- Eos (24 h): 1%
- Fbg (24 h): 220.2 mg/dL
- Hb (24 h): 12.9 g/dL
- Ht (24 h): 37.9%
- Lym (24 h): 82.6%
- MCH (24 h): 21.5 pg
- MCHC (24 h): 33.9%
- MCV (24 h): 63.5 fL
- Mono (24 h): 1.8%
- Neu (24 h): 14%
- PT (24 h): 12.5 s
- Plat (24 h): 119.5 x10_4/uL
- RBC (24 h): 597.4 x10_4/ul
- Ret (24 h): 6.6%
- WBC (24 h): 91.9 x10_2/uL
- KIDNEY_L (24 h): 1 g
- KIDNEY_R (24 h): 1 g
- KIDNEY_TOTAL (24 h): 2 g
- LIVER (24 h): 10.4 g
- A/G (24 h): 1.7
- ALP (24 h): 931.4 IU/L
- ALT (24 h): 36.2 IU/L
- AST (24 h): 65 IU/L
- BUN (24 h): 15.8 mg/dL
- CRE (24 h): 0.4 mg/dL
- Ca (24 h): 10.7 mg/dL
- Cl (24 h): 102.4 meq/L
- DBIL (24 h): 0.088 mg/dL
- GLC (24 h): 202 mg/dL
- IP (24 h): 8.3 mg/dL
- K (24 h): 3.5 meq/L
- LDH (24 h): 182.2 IU/L
- Na (24 h): 141.8 meq/L
- PL (24 h): 144.4 mg/dL
- RALB (24 h): 3.4 g/dL
- TBIL (24 h): 0.1 mg/dL
- TC (24 h): 79 mg/dL
- TG (24 h): 62.6 mg/dL
- TP (24 h): 5.4 g/dL
- gamma-GTP (24 h): 1.4 IU/L
